Key:
Experiment in all cases: selective drug sensitivity score (sDSS, relative to normal bone marrow) (sDSS (score)); higher = more potent and effective on the cell line relative to normal bone marrow cells
Settings in all cases: 72 h
380 = system: 380
697 = system: 697
ALL-PO = system: ALL-PO
CCRF-HSB2 = system: CCRF-HSB2
COG-LL-319h = system: COG-LL-319h
COG-LL-332h = system: COG-LL-332h
COG-LL-355h = system: COG-LL-355h
JURKAT = system: JURKAT
KASUMI-9 = system: KASUMI-9
KOPN-8 = system: KOPN-8
MHH-CALL-2 = system: MHH-CALL-2
MHH-CALL-4 = system: MHH-CALL-4
MOLT-16 = system: MOLT-16
NALL-1 = system: NALL-1
NALM-16 = system: NALM-16
P12-ICHIKAWA = system: P12-ICHIKAWA
P30-OHKUBO = system: P30-OHKUBO
PF-382 = system: PF-382
SEM cells = system: SEM cells
SUP-B15 = system: SUP-B15
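Further: ALL cell lines in 384-well plates, five doses spanning 10,000-fold, each plate scaled between vehicle and 100 µmol/L benzalkonium chloride controls, sDSS an adapted area-under-curve metric.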

SMILES	selective drug sensitivity score 380	selective drug sensitivity score 697	selective drug sensitivity score (ALL-PO)	selective drug sensitivity score (CCRF-HSB2)	selective drug sensitivity score (COG-LL-319h)	selective drug sensitivity score (COG-LL-332h)	selective drug sensitivity score (COG-LL-355h)	selective drug sensitivity score (JURKAT)	selective drug sensitivity score (KASUMI-9)	selective drug sensitivity score (KOPN-8)	selective drug sensitivity score (MHH-CALL-2)	selective drug sensitivity score (MHH-CALL-4)	selective drug sensitivity score (MOLT-16)	selective drug sensitivity score (NALL-1)	selective drug sensitivity score (NALM-16)	selective drug sensitivity score (P12-ICHIKAWA)	selective drug sensitivity score (P30-OHKUBO)	selective drug sensitivity score (PF-382)	selective drug sensitivity score (SEM cells)	selective drug sensitivity score (SUP-B15)
CC[C@@H](C(=O)[C@@H](C)[C@@H](O)[C@H](C)[C@@H]1O[C@@H]([C@@H](CC)C(=O)O)CC[C@@H]1C)[C@H]1O[C@]2(C=C[C@@H](O)[C@]3(CC[C@@](C)([C@H]4CC[C@](O)(CC)[C@H](C)O4)O3)O2)[C@H](C)C[C@@H]1C [Salinomycin] (top concentration 50000 nM)	2.6	-0.9	-13.2	0.9	-0.8	-2.9	-3.1	3.1	-11.4	-8.4	10.8	8.5	10.7	2.2	0.3	-2	-7.8	-5.4	-5.8	-11.1
CNC(=O)CN1CCC(Oc2cc3c(Nc4cccc(Cl)c4F)ncnc3cc2OC)CC1 [Sapitinib] (top concentration 1000 nM)	0	0	0	3.3	0	0	0	0	0	0	0	0	0	0	0	0	0	0	0	0
O[C@H]1CC[C@H](Nc2ncc3nc(Nc4c(F)cc(F)cc4F)n([C@H]4CCOC4)c3n2)CC1 [Tanzisertib] (top concentration 10000 nM)	0	0	1.9	0.2	0	0	0.8	0	0	1.4	0.9	0.2	0	0	1.2	0	0	0	0	0
CO[C@H]1C[C@@H]2CC[C@@H](C)[C@@](O)(O2)C(=O)C(=O)N2CCCC[C@H]2C(=O)O[C@H]([C@H](C)C[C@@H]2CC[C@@H](OC(=O)C(C)(CO)CO)[C@H](OC)C2)CC(=O)[C@H](C)/C=C(\C)[C@@H](O)[C@@H](OC)C(=O)[C@H](C)C[C@H](C)/C=C/C=C/C=C/1C [Temsirolimus] (top concentration 100 nM)	25.5	14.9	2.56	7.76	4.66	8.46	-2.54	-0.54	9.06	21.9	-0.34	-3.54	11.7	-5.04	0.16	-1.44	6.36	7.46	1.36	9.86
COc1cc([C@@H]2c3cc4c(cc3[C@@H](O[C@@H]3O[C@@H]5CO[C@@H](c6cccs6)O[C@H]5[C@H](O)[C@H]3O)[C@H]3COC(=O)[C@H]23)OCO4)cc(OC)c1O [Teniposide] (top concentration 10000 nM)	0	0	0	0	0	0	0	0	0	0	0	0	0	0	0	0	0	0	0	0
Oc1nc(-c2ccc(C(F)(F)F)cc2)nc2c1CSCC2 [XAV939] (top concentration 10000 nM)	1.96	-0.14	0.06	0.36	-0.14	-0.14	0.46	-0.14	-0.14	0.66	0.26	-0.14	-0.14	-0.14	-0.14	-0.14	-0.14	-0.14	0.56	-0.14

— the supplement of paper PMC8967900
